From article PMC7782499, “Progerinin, an optimized progerin-lamin A binding inhibitor, ameliorates premature senescence phenotypes of Hutchinson-Gilford progeria syndrome” (Communications Biology, 2021)
Where “and” joins values, the source holds several entries; their conditions need not be identical. Equal entries are not always repeated. Where two headings read alike, the source gives them in different places.

Assays:
H3K9me3 = H3K9me3 expression in HGPS cells; assay type: cell-based, human; conditions: for H3K9me3 intensity / H3K9me3 positive cells after treatment with chemicals, Ave / H3K9me3 positive cells after treatment with chemicals: AG03198; for H3K9me3 positive cells after treatment with chemicals, Ave: average; for H3K9me3 positive cells after treatment with chemicals: single replicates
Experimental: Fig. 1 SLC-D011 ameliorates premature aging features of HGPS. A. HEK293 cells were transiently transfected with expression vector encoding wild-type lamin A (WT-LA), lamin A-C661A (LA-C661A), progerin, or progerin-C611A. LA-C661A or progerin-C611A with point mutation in CaaX motif was predicted to be lack of farnesylation, […] that of authentic WT-LA or progerin. GFP-conjugated empty expression vector was used as a negative control. Cells were visualized at 24 h after transfection. B Transient transfection of HEK293 cells with expression vector encoding progerin or […] leads to reduced expression of H3K9me3 (n = 3 independent experiments; two-tailed Student’s t test). C. JH4 derivatives (JH010 and SLC-D011(D011)) inhibit lamin A and progerin interaction. For binding inhibition assay, bead-conjugated lamin A (GST-LA) was incubated with HEK293 cells, transiently transfected with GFP-progerin (PG), and treated with indicated chemicals. Actin was used as a loading control. PPT, co-precipitated materials with recombinant proteins; Sup supernatant. 5 μM of each chemical was used for binding assay. […] H3K9me3 reduction is a well-known marker for premature aged cells. Thus, H3K9me3 expression was evaluated by immunostaining. […] E SLC-D011 obviously suppresses progerin expression. For progerin expression analysis, each chemical was used to treat HGPS cells (AG03198, Coriell Cell Repositories) for 7 days. […] F SLC-D011 reduces the expression of progerin in other HGPS cells (AG11513 and AG11498, Coriell Cell Repositories). Treatment with SLC-D011 (2 μM) for 7 days reduced the expression of progerin and p16/INK4A but induced the expression of H3K9me3. […] G JH4, JH010, and SLC-D011 promote cell proliferation. Cell viability was determined by MTT assay after incubation with chemicals for 7 days (n = 3 independent experiments; two-tailed Student’s t test). H JH4, JH010, and SLC-D011 show similar activity for ameliorating nuclear deformation. After incubation with chemicals for 7 days, cells were stained with progerin and H3K9me3 antibodies (n = 3 independent experiment; two-tailed Student’s t test), **p < 0.001. Data are reported as mean ± SD. “Con” means Dimethyl sulfoxide (DMSO)-treated control. The data are normalized to DMSO-treated cells.
Cells were cultured on coverslips, washed with PBS, fixed with 4% paraformaldehyde (PFA) for 30 min at RT, and then permeabilized with 0.2% Triton X-100 at RT for 5 min. After treatment with blocking solution (anti-Human antibody diluted 1:400 in PBS) for 1 h, cells were incubated with anti-lamin A/C (1:400), anti-progerin (1:100), Ki67 (1:200), and anti-H3K9me3 (1:200) in blocking buffer overnight at 4 °C. Finally, cells were incubated with fluorescein isothiocyanate and rhodamine-conjugated secondary antibodies at 4 °C for 7 h. Nuclei were stained with DAPI (4, 6-diamidino-2-phenylindole) at RT for 10 min. After cells were washed three times with PBS, coverslips were mounted with mounting solution (H-5501; Vector Laboratories, Burlingame, CA, USA). Immunofluorescence signal was detected with a fluorescence microscopy (Zeiss and Logos).
For nuclear deformation cell counting, immunofluorescence staining was performed with lamin A or progerin antibodies. After staining, abnormal nuclear membrane was counted in randomly selected fields and expressed as percentages or actual numbers of total cells counted. Abnormalities of nuclear membrane were determined based on the following: (1) lamin A/C or progerin lining was extruded or engulfed, (2) having at least one bleb, and (3) irregular contour. Counting of cells with nuclear deformation was performed by three independent observers who were blinded to chemical treatment group. To analyze histone H3K9me3 intensity or expression, images were quantified using “color histogram” function of Image J software (National Institute of Health, NIH). Fluorescence intensities were subtracted by background signals.

HGPS cells = assay: Cell proliferation of HGPS cells (MTT assay, cell counting); assay type: cell-based, human; conditions: for Cell proliferation (rate): 7 days, normalized to DMSO-treated cells; for Cell proliferation after treatment with SLC-D011, Ave / Cell counting after treatment with chemicals, Ave: average; for Cell proliferation after treatment with SLC-D011 / Cell counting after treatment with chemicals: single replicates
Experimental: To determine the cellular viability, cells were treated with lonafarnib or SLC-D011 for 2 weeks. For MTT assay, cells were incubated with 0.5 mg/ml of 3-(4,5-dimethythiazol-2-yl)-2,5-diphenyl tetrazolium bromide (MTT) solution for 6 hr at 37 °C. After removing MTT solution, the precipitated materials were dissolved in […] DMSO and quantified by measuring the absorbance at 540 nm.
Fig. S4. Ef fect s of J H4, J H010, and SLC-D011 in ameliorating nuclear deformation of HGPS fibroblasts.
A. JH4, JH010, and SLC-D011 increase population of HGPS cells (n = 3 independent experiment; two-
tailed Student’s t -test), **p<0.001. […]
DAPI indicated DNA. C. Treatment with SLC-D011 (1 µM) for 7 days increased
cell proliferation in three different HGPS cells but not in normal fibroblasts (n = 3 independent experiments;
two-tailed Student’s t-test), **p < 0.001, N.S: not significant. AU, arbitrary units. […]

CYP3A4 = CYP3A4 (Homo sapiens, UniProt P08684); assay: CYP inhibition, CYP3A4; assay type: in vitro ADME
Chain of CYP3A4 (P08684 whole entry): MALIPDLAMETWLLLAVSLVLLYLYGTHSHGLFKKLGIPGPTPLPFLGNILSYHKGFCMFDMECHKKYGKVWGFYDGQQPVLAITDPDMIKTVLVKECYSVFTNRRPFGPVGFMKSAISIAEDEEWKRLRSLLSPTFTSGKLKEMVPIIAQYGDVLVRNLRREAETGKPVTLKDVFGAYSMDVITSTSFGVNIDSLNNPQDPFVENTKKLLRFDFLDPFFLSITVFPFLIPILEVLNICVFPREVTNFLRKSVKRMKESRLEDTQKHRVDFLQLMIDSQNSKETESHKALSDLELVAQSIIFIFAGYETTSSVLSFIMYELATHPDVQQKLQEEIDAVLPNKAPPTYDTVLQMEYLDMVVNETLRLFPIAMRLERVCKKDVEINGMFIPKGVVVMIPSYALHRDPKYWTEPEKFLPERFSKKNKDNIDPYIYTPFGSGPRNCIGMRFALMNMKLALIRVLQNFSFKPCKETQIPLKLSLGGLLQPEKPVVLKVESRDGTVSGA
Experimental: (§1) At pre-set time-points, blood concentration of JH4 was determined by LC-MS/MS analysis[22],[23]. Other chemicals were also tested using similar protocol. In vitro ADME studies (plasma protein binding, CYP inhibition, microsomal stability, plasma stability, and hERG inhibition) were performed by New Drug Development Center (Daegu, Korea) using standard protocols[24],[25].

[1] = In vivo pharmacokinetic (PK) analysis, intravenous and oral; set-up: species or system rats; conditions: for bioavailability: read-out: Bioavailability (BA)
Experimental: A. In vivo pharmacokinetic (PK) analysis of JH010 (performed in rats). […] B Effect of SLC-D011 on human ERG (hERG). […] C In vivo pharmacokinetic analysis of SLD-D011. […] HEK293 cells transiently transfected with GFP-PG vectors were treated with SLC-D011 for 24 hr (n = 3 independent experiment; two-tailed Student’s t test). […] “Con” means dimethyl sulfoxide (DMSO)-treated control.
as §1

CC1(C)Oc2cc3oc(=O)ccc3cc2C[C@@H]1OC/C=C/c1ccccc1 [SLC-D011]
H3K9me3 intensity (H3K9me3): 0.227 AU and 0.219 AU and 0.255 AU and 0.254 AU
H3K9me3 positive cells after treatment with chemicals, Ave (H3K9me3; 2μM): 19.5
H3K9me3 positive cells after treatment with chemicals (H3K9me3; 2μM): 15 and 23 and 20 and 19 and 22 and 18
H3K9me3 positive cells after treatment with chemicals, Ave (H3K9me3; 5μM): 25.1667
H3K9me3 positive cells after treatment with chemicals (H3K9me3; 5μM): 20 and 24 and 27 and 28 and 29 and 23
H3K9me3 positive cells after treatment with chemicals, Ave (H3K9me3; 10μM): 29
H3K9me3 positive cells after treatment with chemicals (H3K9me3; 10μM): 24 and 33 and 32 and 30 and 29 and 26
H3K9me3 intensity (H3K9me3; mean): 0.2387 AU
Effect on H3K9me3 expression (H3K9me3; HGPS cells): induce H3K9me3 expression
Cell proliferation (rate) (HGPS cells; AG03198, 2uM): 1.467 and 1.31 and 1.235 and 1.393 and 1.367 and 1.407
Cell proliferation (rate) (HGPS cells; AG03198, 2uM, mean): 1.363
Cell proliferation (rate) (HGPS cells; AG03198, 5uM): 2.067 and 2.103 and 1.735 and 2.25 and 2.2 and 2.259
Cell proliferation (rate) (HGPS cells; AG03198, 5uM, mean): 2.102
Cell counting (HGPS cells; AG03198, 0.1μM, Ave): 13.375
Cell counting (HGPS cells; AG03198, 0.1μM, individual replicate): 15 and 16 and 14 and 8 and 13 and 12
Cell counting (HGPS cells; AG03198, 0.2μM, Ave): 12.25
Cell counting (HGPS cells; AG03198, 0.2μM, individual replicate): 11 and 14 and 12 and 13 and 16 and 10
Cell counting (HGPS cells; AG03198, 0.5μM, Ave): 13.625
Cell counting (HGPS cells; AG03198, 0.5μM, individual replicate): 15 and 13 and 17 and 11 and 10 and 12 and 18
Cell counting (HGPS cells; AG03198, 1μM, Ave): 18
Cell counting (HGPS cells; AG03198, 1μM, individual replicate): 17 and 21 and 26 and 16 and 13
Cell proliferation after treatment with SLC-D011, Ave (HGPS cells; AG03198): 2.85 AU
Cell proliferation after treatment with SLC-D011 (HGPS cells; AG03198): 2.5 AU (2×) and 2.2 AU and 2.7 AU and 3.3 AU and 3.7 AU and 3 AU and 2.9 AU
Cell proliferation after treatment with SLC-D011, Ave (HGPS cells; AG11498): 3.325 AU
Cell proliferation after treatment with SLC-D011 (HGPS cells; AG11498): 3.3 AU (2×) and 3.6 AU and 2.9 AU and 3.5 AU and 3.4 AU and 3.9 AU and 2.7 AU
Cell counting after treatment with chemicals, Ave (HGPS cells; AG11513): 29.75
Cell proliferation after treatment with SLC-D011, Ave (HGPS cells; AG11513): 2.875 AU
Cell counting after treatment with chemicals (HGPS cells; AG11513): 20 (2×) and 29 and 32 and 37 and 42 and 33 and 25
Cell proliferation after treatment with SLC-D011 (HGPS cells; AG11513): 2 AU (2×) and 2.9 AU and 3.2 AU and 3.3 AU (2×) and 3.8 AU and 2.5 AU
Cell proliferation after treatment with SLC-D011, Ave (HGPS cells; N9): 3.975 AU
Cell proliferation after treatment with SLC-D011 (HGPS cells; N9): 3.9 AU and 4.2 AU (2×) and 3.8 AU (2×) and 4 AU and 4.4 AU and 3.5 AU
Concentration promoting cell proliferation and ameliorating nuclear abnormality (HGPS cells; direct cell counting assay, HGPS cells): 100 nM
CYP inhibition (CYP3A4): 92.5
bioavailability ([1]; rat, blood, oral, 10 mg/kg): 58.1%
Cmax ([1]; rat, blood, oral 5mg/kg (n=3)): 29.7 ng/mL
Tmax ([1]; rat, blood, oral 5mg/kg (n=3)): 2.7 h
AUC ([1]; rat, blood, oral 5mg/kg (n=3), read-out: AUCall, Mean): 144 ng·h/mL
bioavailability ([1]; rat, blood, oral 5 mg/kg): 65.9%

CC1(C)Oc2cc3oc(=O)ccc3cc2CC1OC(=O)C=Cc1cccnc1 (centres unmarked) [JH4]
H3K9me3 positive cells after treatment with chemicals, Ave (H3K9me3; 2μM): 14.5
H3K9me3 positive cells after treatment with chemicals (H3K9me3; 2μM): 13 and 17 and 15 (2×) and 11 and 16
H3K9me3 positive cells after treatment with chemicals, Ave (H3K9me3; 5μM): 21.6667
H3K9me3 positive cells after treatment with chemicals (H3K9me3; 5μM): 27 and 16 and 20 and 22 (2×) and 23
H3K9me3 positive cells after treatment with chemicals, Ave (H3K9me3; 10μM): 27
H3K9me3 positive cells after treatment with chemicals (H3K9me3; 10μM): 30 and 29 and 24 and 25 and 27 (2×)
Cell proliferation (rate) (HGPS cells; AG03198, 2uM): 1.267 and 1.276 and 1.118 and 1.25 and 1.333 and 1.2963
Cell proliferation (rate) (HGPS cells; AG03198, 2uM, mean): 1.257
Cell proliferation (rate) (HGPS cells; AG03198, 5uM): 1.833 and 1.759 and 1.647 and 1.964 and 1.667 and 1.926
Cell proliferation (rate) (HGPS cells; AG03198, 5uM, mean): 1.799
Cell counting after treatment with chemicals, Ave (HGPS cells; AG11513): 28
Cell counting after treatment with chemicals (HGPS cells; AG11513): 22 and 29 and 19 and 40 and 32 and 37 and 17 and 28
AUCINF_obs, Mean ([1]; intravenous 5mg/kg (n=3)): 1.4 ng·h/mL
AUCall, Mean ([1]; intravenous 5mg/kg (n=3)): 1.3 ng·h/mL
MRTINF_obs, Mean ([1]; intravenous 5mg/kg (n=3)): 0.2 h
T1/2, Mean ([1]; intravenous 5mg/kg (n=3)): 6 min
Vss_obs, Mean ([1]; intravenous 5mg/kg (n=3)): 673.9 L/kg
Plasma concentration, Mean ([1]; intravenous 5mg/kg (n=3), 0.08 hr): 4.7 ng/mL
Plasma concentration, Mean ([1]; intravenous 5mg/kg (n=3), 0.25 hr): 1.5 ng/mL
Plasma concentration, Mean ([1]; intravenous 5mg/kg (n=3), 0.5 hr): 0.6 ng/mL
Half-life after in vivo oral administration ([1]; oral 10 mg/kg): extremely short
